From patent US9573954B2, “Pyrazolopyrimidine compounds” (University Health Network, priority 2012, dated 2017) come the findings set out here.

The target of one test is T1, human TTK (Homo sapiens, UniProt P33981).
T1 construct: Active TTK was purchased from Invitrogen as an amino terminal GST fusion of full length human TTK; purchased Invitrogen
T1 sequence (P33981 1-857): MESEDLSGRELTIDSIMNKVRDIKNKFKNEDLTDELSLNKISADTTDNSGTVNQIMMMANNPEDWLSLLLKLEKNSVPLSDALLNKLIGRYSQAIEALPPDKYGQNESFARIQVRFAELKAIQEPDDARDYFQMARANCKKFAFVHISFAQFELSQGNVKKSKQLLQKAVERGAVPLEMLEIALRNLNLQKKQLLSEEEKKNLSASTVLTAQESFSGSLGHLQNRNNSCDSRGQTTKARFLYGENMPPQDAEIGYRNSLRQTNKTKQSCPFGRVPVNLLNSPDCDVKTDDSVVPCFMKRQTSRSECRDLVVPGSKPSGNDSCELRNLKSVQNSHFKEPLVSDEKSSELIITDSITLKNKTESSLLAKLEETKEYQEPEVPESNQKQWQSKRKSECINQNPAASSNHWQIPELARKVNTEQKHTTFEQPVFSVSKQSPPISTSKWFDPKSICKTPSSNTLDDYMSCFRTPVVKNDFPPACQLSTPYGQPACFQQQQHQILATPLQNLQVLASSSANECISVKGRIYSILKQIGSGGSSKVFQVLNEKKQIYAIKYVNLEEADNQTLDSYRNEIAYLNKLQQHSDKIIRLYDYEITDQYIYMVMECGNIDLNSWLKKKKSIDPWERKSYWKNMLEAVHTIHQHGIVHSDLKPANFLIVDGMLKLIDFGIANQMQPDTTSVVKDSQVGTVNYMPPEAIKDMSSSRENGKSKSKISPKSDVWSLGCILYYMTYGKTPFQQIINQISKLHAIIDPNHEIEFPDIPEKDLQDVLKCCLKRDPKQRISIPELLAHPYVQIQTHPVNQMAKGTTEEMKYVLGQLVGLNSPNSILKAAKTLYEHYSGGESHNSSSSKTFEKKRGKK
Nature of the test: TTK inhibition assay (indirect ELISA). The test is classed as biochemical. As to conditions: 16 μM ATP (Sigma cat# A7699); read-out: TTK IC50 Range (denoted with an asterisk). As for the experimental part: Active TTK was purchased from Invitrogen as an amino terminal GST fusion of full length human TTK.
TTK activity was measured using an indirect ELISA detection system.
Compounds were pre-incubated in the presence of enzyme for 5 minutes prior to addition of ATP and the activity remaining quantified using the above described activity assay. The % Inhibition of a compound was determined using the following formula; % Inhibition=100×(1−(experimental value−background value)/(high activity control−background value)). The IC50 value was determined using a non-linear 4 point logistic curve fit (XLfit4, IDBS) with the formula; (A+(B/(1+((x/C)^D)))), where A=background value, B=range, C=inflection point, D=curve fit parameter.
(In general: An ELISA detects its analyte on a solid surface through an enzyme-linked reagent.)
A word on the IC50: it is the midpoint of a concentration-inhibition curve. For the molecule `COCCNc1nc(Oc2ccccc2)nc2c(-c3ccc(C(=O)NC4CC4)cc3)cnn12` [Example C6], the IC50 is under 100 nM. `CC(C)NC(=O)c1ccc(-c2cnn3c(NCC4CCOCC4)nc(Oc4ccccc4)nc23)cc1` [Example C2]: the IC50 is 100 to 500 nM.

`CC(C)C(=O)Nc1ccc(-c2cnn3c(NCC4CCOCC4)nc(Oc4ccccc4)nc23)cc1` [Example C3]: the IC50 was over 500 nM. In the case of `Cc1cc(-c2cnn3c(NCC4CCOCC4)nc(Oc4ccccc4)nc23)ccc1NC(=O)C1CC1` [Example C17], the IC50 is over 500 nM. Regarding `O=C(NC1CC1)c1ccc(-c2cnn3c(NCC4CCOCC4)nc(N4CCCCC4)nc23)cc1Cl` [Example C16], the half-inhibitory concentration (IC50) was under 100 nM. Still for that read-out and setting: in the case of `CN(c1nc(NCC2CCOCC2)n2ncc(-c3ccc(C(=O)NC4CC4)c(F)c3)c2n1)C1CCCCC1` [Example C15] it was under 100 nM; in that of `O=C(NC1CC1)c1ccc(-c2cnn3c(NCCCN4CCOCC4)nc(Oc4ccccc4)nc23)cc1` [Example C1, N-cyclopropyl-4-(4-((3-morpholinopropyl)amino)-2-phenoxypyrazolo[1,5-a][1,3,5]triazin-8-yl)benzamide], under 100 nM.

For `CC(C)NC(=O)c1ccc(-c2cnn3c(NCC4CCOCC4)nc(OC4CCCC4)nc23)cc1` [Example C4], the half-maximal inhibitory concentration (IC50) was 100 to 500 nM. On the same count and under the same terms, the same measure for `Cc1cc(-c2cnn3c(NCC4CCOCC4)nc(NC4CCCC4)nc23)ccc1NC(=O)C1CC1` [Example C18]: over 500 nM.

Still in this test, the particulars now being: 100 μM ATP; read-out: TTK IC50 Range.
`Cc1cc(-c2cnn3c(NCC4CCOCC4)cc(NC(CO)CO)nc23)ccc1C(=O)NC1CC1` [Example C110]: the half-inhibitory concentration (IC50) was under 100 nM. Consider `Cc1cc(-c2cnn3c(NCC(C)C)cc(Oc4ccncc4)nc23)ccc1C(=O)NC1CC1` [Example C149], for which the IC50 is 100 to 500 nM. On the same count and under the same terms, the same measure for `CC(C)CNc1cc(-c2cccc3ncccc23)nc2c(-c3ccc(C(=O)NC4CC4)cc3)cnn12` [Example C155]: over 500 nM; for `Cc1cc(-c2cnn3c(NCCN4CCOCC4)cc(Oc4cccc(N5CCOCC5)c4)nc23)ccc1C(=O)NC1CC1` [Example C91]: under 100 nM. In the case of `Cc1cc(-c2cnn3c(NCCN4CCOCC4)cc(Oc4cccc(S(C)(=O)=O)c4)nc23)ccc1C(=O)NC1CC1` [Example C86], the 50% inhibitory concentration (IC50) lay within 100 to 500 nM. Consider `Cc1cc(-c2cnn3c(NCC4(CO)CCOCC4)cc(NC4CCOCC4)nc23)ccc1C(=O)NC1CC1` [Example C93], for which the IC50 was under 100 nM.

For the molecule `Cc1cc(-c2cnn3c(NCCN4CCC(F)(F)CC4)cc(Oc4cnn(C)c4)nc23)ccc1C(=O)NC1CC1` [Example C185], the IC50 is under 100 nM. Turning to `Cc1cc(-c2cnn3c(NCCN4CCOCC4)cc(NCc4cccnc4)nc23)ccc1C(=O)NC1CC1` [Example C75], the half-maximal inhibitory concentration (IC50) was under 100 nM. The same measure, in the same setting: the same measure for `Cc1cc(-c2cnn3c(NCC4CCOCC4)cc(NCc4ccccn4)nc23)ccc1C(=O)NC1CC1` [Example C73]: under 100 nM; for `Cc1cc(-c2cnn3c(NCC4CCOCC4)cc(OC4CCN(C5COC5)CC4)nc23)ccc1C(=O)NC1CC1` [Example C115]: under 100 nM; for `COCCNc1cc(NC2CCCC2)nc2c(-c3ccc(C(=O)NC4CC4)c(C)c3)cnn12` [Example C80]: under 100 nM. On the same count and under the same terms, in the case of `Cc1cc(-c2cnn3c(NCC4CCOCC4)cc(N4CC[C@H](CO)C4)nc23)ccc1C(=O)NC1CC1` [Example C166] it was under 100 nM; in that of `Cc1cc(-c2cnn3c(NC[C@H]4CCCO4)cc(NC4CCOCC4)nc23)ccc1C(=O)NC1CC1` [Example C63], under 100 nM; in that of `Cc1cc(-c2cnn3c(NCCO)cc(NC4CCCC4)nc23)ccc1C(=O)NC1CC1` [Example C81], under 100 nM. Still for that read-out and setting: the same measure for `CC[C@H](Nc1cc(NCCN2CCOCC2)n2ncc(-c3ccc(C(=O)NC4CC4)c(C)c3)c2n1)[C@H](C)O` [Example C119]: under 100 nM. On to `CC(=O)N1CCN(c2cc(NCC3CCOCC3)n3ncc(-c4ccc(C(=O)NC5CC5)c(C)c4)c3n2)CC1` [Example C84], for which the IC50 was under 100 nM. Still for that read-out and setting: the same measure for `Cc1cc(-c2cnn3c(NCC4CCOCC4)cc(NC[C@@H]4CCCO4)nc23)ccc1C(=O)NC1CC1` [Example C29, (S)-N-cyclopropyl-2-methyl-4-(7-(((tetrahydro-2H-pyran-4-yl)methyl)amino)-5-(((tetrahydrofuran-2-yl)methyl)amino)pyrazolo[1,5-a]pyrimidin-3-yl)benzamide]: under 100 nM; for `Cc1cc(-c2cnn3c(NCC4CCOCC4)cc(OCCN4CCOCC4)nc23)ccc1C(=O)NC1CC1` [Example C117]: under 100 nM. In the case of `Cc1cc(-c2cnn3c(NCC4CCOCC4)cc(N4CC(O)C4)nc23)ccc1C(=O)NC1CC1` [Example C69], the half-maximal inhibitory concentration (IC50) lay within 100 to 500 nM. On the same count and under the same terms, the same measure for `Cc1cc(-c2cnn3c(NCC4CCOCC4)cc(NC4COC4)nc23)ccc1C(=O)NC1CC1` [Example C102]: under 100 nM. Same read-out and setting: the same measure for `Cc1cc(-c2cnn3c(NCCN4CCOCC4)cc(NC4CCOCC4)nc23)ccc1C(=O)NC1CC1` [Example C53]: under 100 nM; for `Cc1cc(-c2cnn3c(NCC(C)C)cc(-c4cccc5ncccc45)nc23)ccc1C(=O)NC1CC1` [Example C154]: 100 to 500 nM. Still for that read-out and setting: the same measure for `Cc1cc(-c2cnn3c(NCCCn4ccnc4)cc(NC4CCCC4)nc23)ccc1C(=O)NC1CC1` [Example C70]: under 100 nM; for `Cc1cc(-c2cnn3c(NCCN4CCC(O)CC4)cc(NC4CCCC4)nc23)ccc1C(=O)NC1CC1` [Example C168]: under 100 nM. Consider `Cc1cc(-c2cnn3c(NCCN4CCOCC4)cc(NCC4CC4)nc23)ccc1C(=O)NC1CC1` [Example C76], for which the IC50 was under 100 nM. In the case of `Cc1cc(-c2cnn3c(NCCN4CCOCC4)cc(OC4COC4)nc23)ccc1C(=O)NC1CC1` [Example C101], the IC50 lay in the range of 100 to 500 nM. The same measure, in the same setting: in the case of `Cc1cc(-c2cnn3c(NCC4CCOCC4)cc(NC4CCN(C5COC5)CC4)nc23)ccc1C(=O)NC1CC1` [Example C122] it was under 100 nM.

The same test, now with this note: Table 1; 16 μM ATP (asterisk); read-out: TTK IC50 Range.
As for `Cc1cc(-c2cnn3c(NCC4CCOCC4)nc(N(C)C)nc23)ccc1C(=O)NC1CC1` [Example A1, N-Cyclopropyl-4-(2-(dimethylamino)-4-(((tetrahydro-2H-pyran-4-yl)methyl)amino)pyrazolo[1,5-a][1,3,5]triazin-8-yl)-2-methylbenzamide], the IC50 fell in the range of 100 to 500 nM.

The same test, now with this note: Table 2; 16 μM ATP (asterisk); read-out: TTK IC50 Range.
For `Cc1cc(-c2cnn3c(NCC(C)(C)O)cc(Oc4cccnc4)nc23)ccc1C(=O)NC1CC1` [Example B28, N-cyclopropyl-4-(7-((2-hydroxy-2-methylpropyl)amino)-5-(pyridin-3-yloxy)pyrazolo[1,5-a]pyrimidin-3-yl)-2-methylbenzamide], the 50% inhibitory concentration (IC50) was under 100 nM. On the same count and under the same terms, in the case of `CC[C@H](Nc1cc(NCC2CCOCC2)n2ncc(-c3ccc(C(=O)NC4CC4)c(C)c3)c2n1)[C@H](C)O` [Example B30, N-cyclopropyl-4-(5-(((2S,3S)-2-hydroxypentan-3-yl)amino)-7-(((tetrahydro-2H-pyran-4-yl)methyl)amino)pyrazolo[1,5-a]pyrimidin-3-yl)-2-methylbenzamide] it was under 100 nM.

As for `Cc1cc(-c2cnn3c(NCC4CCOCC4)cc(NC4CCCC4)nc23)ccc1NC(=O)C1CC1` [Example B15, N-(4-(5-(cyclopentylamino)-7-(((tetrahydro-2H-pyran-4-yl)methyl)amino)pyrazolo[1,5-a]pyrimidin-3-yl)-2-methylphenyl)cyclopropanecarboxamide], the IC50 is over 500 nM. Still for that read-out and setting: in the case of `Cc1cc(-c2cnn3c(NCC(C)(C)O)cc(Oc4ccccc4)nc23)ccc1C(=O)NC1CC1` [Example B27, N-cyclopropyl-4-(7-((2-hydroxy-2-methylpropyl)amino)-5-phenoxypyrazolo[1,5-a]pyrimidin-3-yl)-2-methylbenzamide] it was under 100 nM. On the same count and under the same terms, in the case of `Cc1cc(-c2cnn3c(NC[C@H]4CC[C@H](O)CC4)cc(NC4CCOCC4)nc23)ccc1C(=O)NC1CC1` [Example B33, N-cyclopropyl-4-(7-((((1r,4r)-4-hydroxycyclohexyl)-methyl)amino)-5-((tetrahydro-2H-pyran-4-yl)amino)pyrazolo[1,5-a]pyrimidin-3-yl)-2-methylbenzamide] it was under 100 nM.
